Experimental data: US6255497A, “Method for the inhibition of ALDH-I useful in the treatment of alcohol dependence or alcohol abuse” (priority 1998, dated 2001)

Key:
[1] = Plasma drug concentration versus time after a single 10 mg dose; format: in vivo; conditions: golden hamster
Excerpt: Five hours later the plasma concentrations of both inhibitors were still above […], far above their competitive inhibition constants for ALDH-I.

[2] = high doses; cited from earlier work
ALDH-I = biological target: T1, ALDH-I (Homo sapiens, UniProt P05091); assay: Reversibility of ALDH-I inhibition (preincubation, then dilution); format: biochemical; parameters: A liver sample (50 g wet weight) with the usual Caucasian ALDH phenotype (both ALDH-I and ALDH-II present); from tissue; host or cells: human liver (autopsy), purified by CM-52, AMP-agarose and DEAE HPLC
T1 sequence (P05091 18-517): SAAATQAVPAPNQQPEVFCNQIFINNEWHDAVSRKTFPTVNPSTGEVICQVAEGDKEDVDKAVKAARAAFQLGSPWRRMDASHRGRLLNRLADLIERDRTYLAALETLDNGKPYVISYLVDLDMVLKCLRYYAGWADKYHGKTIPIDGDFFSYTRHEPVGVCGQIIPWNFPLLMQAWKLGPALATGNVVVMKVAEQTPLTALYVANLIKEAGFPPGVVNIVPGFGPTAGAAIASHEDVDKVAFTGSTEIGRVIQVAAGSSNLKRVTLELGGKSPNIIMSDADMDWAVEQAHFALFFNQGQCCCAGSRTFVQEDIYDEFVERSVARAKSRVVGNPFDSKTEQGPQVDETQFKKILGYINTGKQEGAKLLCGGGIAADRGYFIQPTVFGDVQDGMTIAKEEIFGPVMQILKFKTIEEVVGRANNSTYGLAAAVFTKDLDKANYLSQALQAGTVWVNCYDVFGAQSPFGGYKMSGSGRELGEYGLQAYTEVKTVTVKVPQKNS

golden hamsters = assay: Effect of daidzin on free choice ethanol intake in golden hamsters; format: in vivo, golden hamster; conditions: 10 mg/day
Excerpt: Hamsters were chosen as described in Example 4 based on previous reports that they display high ethanol intake and preference in comparison with several other mammalian species, and that this was correlated with differences in ethanol metabolism. Kulkosky and Cornell, 1979, supra.
The animals used in these experiments are adult male golden hamsters (outbred, Lakeview Lak: LVG[SYR]), purchased from Charles River Laboratories, Wilmington, Mass. 01887. Upon arrival, hamsters are housed (4 per cage) with ad libitum access to food and tap water in a room maintained at 23° C. on a 12/12 light/dark cycle (light on 0600-1800 hr.) for 1 week. Following this acclimation period, each hamster is transferred to an individual stainless steel metabolic cage (26×18×17.5 cm) with a wire mesh floor for the remainder of the experiment. Each cage is equipped with a stainless steel food hopper located on the right side of the front wall which was kept filled with food. Two 50 ml drinking bottles fitted with stainless steel sipper tubes are placed on the left side of the front wall. Under the sipper tubes are funnels which collect and direct spillage to tubes placed outside of the cages. Fluids are provided mainly during the dark cycle (1800-0800 hr.) and fluid intake is measured in the morning at the same time each day, for example, at 0800 hr. During this baseline period, for example, 8 days, two drinking solutions are provided for each animal. One is tap water; the other is a 30% v/v solution of ethanol (100% USP). The position of the two drinking bottles on each cage is alternated daily to prevent the development of positional preference.
In other experiments, subcutaneous administration is preferably omitted, and each hamster receives only daily oral administration by feeding as described herein. […] This decline in alcohol intake was accompanied by a concomitant increase in water intake.

## O=c1c(-c2ccc(O)cc2)coc2cc(O[C@@H]3O[C@H](CO)[C@@H](O)[C@H](O)[C@H]3O)ccc12 [Daidzin, 7-glucoside of daidzein]
[1]; i.p.
  time to maximal plasma concentration after injection: within about an hour after injection
[1]; plasma, ip, read-out: maximal plasma concentration
  Cmax: 6 µM
[2]
  estrogenic activity: estrogenic activity at high doses
ALDH-I
  reversibility of ALDH-I inhibition: reversible
ALDH-I; read-out: final inhibition after 100-fold dilution
  inhibition at 0.001 µM: 2%
ALDH-I; read-out: inhibition after preincubation with daidzin
  inhibition at 0.1 µM: 70%
Golden hamsters
  effect apparent after the first dose, hamster Number 9: fourth day after the first dose
  start of decline of alcohol intake after the first dose, hamster Number 6: 2 days
Golden hamsters; hamster Number 6
  total fluid intake during daidzin administration: slightly decreased
  total water intake (water bottle plus water in ethanol mixture): stayed nearly constant
